In brackets after ≈: the same amount, converted by molar mass.
Experiments:
[1] = test system: Mycobacterium tuberculosis H37Rv; assay: Anti-TB activity, colorimetric resazurin microtiter assay; format: cell-based; conditions: Mycobacterium tuberculosis, H37RV, read-out: MIC, Minimum Inhibitory Concentration (90%)
E.coli 7632 = assay: MIC by microbroth dilution method; format: cell-based
S.epidermis St 358 = assay: MIC by microbroth dilution method; format: cell-based, S. epidermidis
[2] = test system: S.aureus ATCC 13709 Smith; assay: MIC by microbroth dilution method; format: cell-based
E.faecium ATCC 3567 = assay: MIC by microbroth dilution method; format: cell-based
S.aureus2 (PVL + ve) = format: cell-based, S. aureus
MRSA 252 BAA 1720 = assay: MIC by microbroth dilution method; format: cell-based, S. aureus
MRSA 0-2657 = assay: MIC by microbroth dilution method; format: cell-based, S. aureus
S.epidermidis ATCC 14990 = assay: MIC by microbroth dilution method; format: cell-based
[3] = test system: S.aureus ATCC 49775 PVL + ve; format: cell-based
S.aureus DB00026 = assay: MIC by microbroth dilution method; format: cell-based
E.faecium ATCC 49224 = assay: MIC by microbroth dilution method; format: cell-based
MRSA 562 = assay: MIC by microbroth dilution method; format: cell-based, S. aureus
E.faecium ATCC 35667 = assay: MIC by microbroth dilution method; format: cell-based
S.aureus ATCC 29213 = assay: MIC by microbroth dilution method; format: cell-based
MRSE ATCC 35983 = assay: MIC by microbroth dilution method; format: cell-based, S. epidermidis
E.faecalis ATCC 19433 = assay: MIC by microbroth dilution method; format: cell-based
[4] = test system: S.aureus ATCC 700699 Mu50; assay: MIC by microbroth dilution method; format: cell-based
E.faecium 6A VRE = assay: MIC by microbroth dilution method; format: cell-based
E.faecium 06076 VRE = assay: MIC by microbroth dilution method; format: cell-based
[5] = test system: E.faecalis ATCC 51299(VRE&HLAR); assay: MIC by microbroth dilution method; format: cell-based
E.faecalis SP 346 VRE = assay: MIC by microbroth dilution method; format: cell-based
MRSA ATCC BAA 39 = assay: MIC by microbroth dilution method; format: cell-based, S. aureus
E.faecium ATCC 19434 = assay: MIC by microbroth dilution method; format: cell-based
MRSA DB 00026 = assay: MIC by microbroth dilution method; format: cell-based, S. aureus
MRSE ATCC 35984 = assay: MIC by microbroth dilution method; format: cell-based, S. epidermidis
MRSA ATCC 43300 = assay: MIC by microbroth dilution method; format: cell-based, S. aureus
E.faecalis ATCC 29212 = assay: MIC by microbroth dilution method; format: cell-based
[6] = test system: S.aureus 13709 LNZ mutant; format: cell-based
[7] = test system: S.aureus ATCC Newman 25904; assay: MIC by microbroth dilution method; format: cell-based
S.epidermidis ATCC 12228 = assay: MIC by microbroth dilution method; format: cell-based
E.faecium 134 VRE = assay: MIC by microbroth dilution method; format: cell-based

## COC(=S)NC[C@H]1CN(c2cc(F)c(N3CC[Si](C)(C)CC3)c(F)c2)C(=O)O1 [NDS-10055, (S)—O-methyl(3-(4-(4,4-dimethyl-1,4-azasilinan-1-yl)-3,5-difluorophenyl)-2-oxooxazolidin-5-yl)methylcarbamothioate]
[1]
  MIC: > 100 µg/mL

## COC(=O)NC[C@H]1CN(c2cc(F)c(N3CC[Si](C)(C)CC3)c(F)c2)C(=O)O1 [NDS-10053, (S)-methyl(3-(4-(4,4-dimethyl-1,4-azasilinan-1-yl)-3,5-difluorophenyl)-2-oxooxazolidin-5-yl)methylcarbamate]
E.coli 7632
  MIC: > 32 µg/mL
S.epidermis St 358
  MIC: 16 µg/mL (≈ 38.7 µM)
[2]
  MIC: 16 µg/mL (≈ 38.7 µM)
E.faecium ATCC 3567
  MIC: 16 µg/mL (≈ 38.7 µM)
S.aureus2 (PVL + ve)
  MIC: 16 µg/mL (≈ 38.7 µM)
MRSA 252 BAA 1720
  MIC: 8 µg/mL (≈ 19.3 µM)
MRSA 0-2657
  MIC: 8 µg/mL (≈ 19.3 µM)
[1]
  MIC: 50 µg/mL (≈ 121 µM)
S.epidermidis ATCC 14990
  MIC: 8 µg/mL (≈ 19.3 µM)
[3]
  MIC: 16 µg/mL (≈ 38.7 µM)
S.aureus DB00026
  MIC: 16 µg/mL (≈ 38.7 µM)
E.faecium ATCC 49224
  MIC: 32 µg/mL (≈ 77.4 µM)
MRSA 562
  MIC: 16 µg/mL (≈ 38.7 µM)
E.faecium ATCC 35667
  MIC: 8 µg/mL (≈ 19.3 µM)
S.aureus ATCC 29213
  MIC: 16 µg/mL (≈ 38.7 µM)
MRSE ATCC 35983
  MIC: 32 µg/mL (≈ 77.4 µM)
E.faecalis ATCC 19433
  MIC: 32 µg/mL (≈ 77.4 µM)
[4]
  MIC: 8 µg/mL (≈ 19.3 µM)
E.faecium 6A VRE
  MIC: 4 µg/mL (≈ 9.67 µM)
E.faecium 06076 VRE
  MIC: > 32 µg/mL
[5]
  MIC: 16 µg/mL (≈ 38.7 µM)
E.faecalis SP 346 VRE
  MIC: 32 µg/mL (≈ 77.4 µM)
MRSA ATCC BAA 39
  MIC: 8 µg/mL (≈ 19.3 µM)
E.faecium ATCC 19434
  MIC: 16 µg/mL (≈ 38.7 µM)
MRSA DB 00026
  MIC: 32 µg/mL (≈ 77.4 µM)
MRSE ATCC 35984
  MIC: 8 µg/mL (≈ 19.3 µM)
MRSA ATCC 43300
  MIC: 16 µg/mL (≈ 38.7 µM)
E.faecalis ATCC 29212
  MIC: 32 µg/mL (≈ 77.4 µM)
[6]
  MIC: > 32 µg/mL
[7]
  MIC: 16 µg/mL (≈ 38.7 µM)
S.epidermidis ATCC 12228
  MIC: 8 µg/mL (≈ 19.3 µM)
E.faecium 134 VRE
  MIC: 32 µg/mL (≈ 77.4 µM)

## CCC(=O)NC[C@H]1CN(c2cc(F)c(N3CC[Si](C)(c4ccccc4)CC3)c(F)c2)C(=O)O1 [NDS-10069, (S)—N-((3-(3,5-difluoro-4-(4-methyl-4-phenyl-1,4-azasilinan-1-yl)phenyl)-2-oxooxazolidin-5-yl)methyl)propionamide]
[1]
  MIC: 50 µg/mL (≈ 106 µM)

## CC(=O)NC[C@H]1CN(c2cc(F)c(N3CC[Si](C)(c4ccccc4)CC3)c(F)c2)C(=O)O1 [NDS-10068, (S)—N-((3-(3,5-difluoro-4-(4-methyl-4-phenyl-1,4-azasilinan-1-yl)phenyl)-2-oxooxazolidin-5-yl)methyl)acetamide]
[1]
  MIC: > 100 µg/mL

## CC(=O)NC[C@H]1CN(c2ccc(N3CCOCC3)c(F)c2)C(=O)O1 [Linezolid, (S)—N-({3-[3-fluoro-4-(morpholin-4-yl)phenyl]-2-oxo-1,3-oxazolidin-5-yl}methyl)acetamide, reference compound]
E.coli 7632
  MIC: 1 µg/mL (≈ 2.96 µM)
S.epidermis St 358
  MIC: 2 µg/mL (≈ 5.93 µM)
[2]
  MIC: 2 µg/mL (≈ 5.93 µM)
E.faecium ATCC 3567
  MIC: 2 µg/mL (≈ 5.93 µM)
S.aureus2 (PVL + ve)
  MIC: 2 µg/mL (≈ 5.93 µM)
MRSA 252 BAA 1720
  MIC: 1 µg/mL (≈ 2.96 µM)
MRSA 0-2657
  MIC: 1 µg/mL (≈ 2.96 µM)
S.epidermidis ATCC 14990
  MIC: 2 µg/mL (≈ 5.93 µM)
[3]
  MIC: 2 µg/mL (≈ 5.93 µM)
S.aureus DB00026
  MIC: 1 µg/mL (≈ 2.96 µM)
E.faecium ATCC 49224
  MIC: 2 µg/mL (≈ 5.93 µM)
MRSA 562
  MIC: 2 µg/mL (≈ 5.93 µM)
E.faecium ATCC 35667
  MIC: 4 µg/mL (≈ 11.9 µM)
S.aureus ATCC 29213
  MIC: 2 µg/mL (≈ 5.93 µM)
MRSE ATCC 35983
  MIC: 1 µg/mL (≈ 2.96 µM)
E.faecalis ATCC 19433
  MIC: 1 µg/mL (≈ 2.96 µM)
[4]
  MIC: 2 µg/mL (≈ 5.93 µM)
E.faecium 6A VRE
  MIC: 2 µg/mL (≈ 5.93 µM)
E.faecium 06076 VRE
  MIC: 2 µg/mL (≈ 5.93 µM)
[5]
  MIC: 1 µg/mL (≈ 2.96 µM)
E.faecalis SP 346 VRE
  MIC: 2 µg/mL (≈ 5.93 µM)
MRSA ATCC BAA 39
  MIC: 2 µg/mL (≈ 5.93 µM)
E.faecium ATCC 19434
  MIC: 2 µg/mL (≈ 5.93 µM)
MRSA DB 00026
  MIC: 2 µg/mL (≈ 5.93 µM)
MRSE ATCC 35984
  MIC: 1 µg/mL (≈ 2.96 µM)
MRSA ATCC 43300
  MIC: 4 µg/mL (≈ 11.9 µM)
E.faecalis ATCC 29212
  MIC: 0.5 µg/mL (≈ 1.48 µM)
[6]
  MIC: 2 µg/mL (≈ 5.93 µM)
[7]
  MIC: 2 µg/mL (≈ 5.93 µM)
E.faecium 134 VRE
  MIC: 2 µg/mL (≈ 5.93 µM)

From patent US9233989B2, “Sila analogs of oxazolidinone derivatives and synthesis thereof” (Council of Scientific & Industrial Research, priority 2011, dated 2016)
